Experimental data reported in patent US20170081338A1, “SUBSTITUTED HETEROARYL COMPOUNDS AND METHODS OF USE” (Sunshine Lake Pharma Co., Ltd., priority 2015, published 2017).

Molecular target: T1, FLT3 (h) (Homo sapiens, UniProt P36888)
T1 construct: purchased Millipore UK Ltd (contract assay service)
T1 sequence (P36888 27-993): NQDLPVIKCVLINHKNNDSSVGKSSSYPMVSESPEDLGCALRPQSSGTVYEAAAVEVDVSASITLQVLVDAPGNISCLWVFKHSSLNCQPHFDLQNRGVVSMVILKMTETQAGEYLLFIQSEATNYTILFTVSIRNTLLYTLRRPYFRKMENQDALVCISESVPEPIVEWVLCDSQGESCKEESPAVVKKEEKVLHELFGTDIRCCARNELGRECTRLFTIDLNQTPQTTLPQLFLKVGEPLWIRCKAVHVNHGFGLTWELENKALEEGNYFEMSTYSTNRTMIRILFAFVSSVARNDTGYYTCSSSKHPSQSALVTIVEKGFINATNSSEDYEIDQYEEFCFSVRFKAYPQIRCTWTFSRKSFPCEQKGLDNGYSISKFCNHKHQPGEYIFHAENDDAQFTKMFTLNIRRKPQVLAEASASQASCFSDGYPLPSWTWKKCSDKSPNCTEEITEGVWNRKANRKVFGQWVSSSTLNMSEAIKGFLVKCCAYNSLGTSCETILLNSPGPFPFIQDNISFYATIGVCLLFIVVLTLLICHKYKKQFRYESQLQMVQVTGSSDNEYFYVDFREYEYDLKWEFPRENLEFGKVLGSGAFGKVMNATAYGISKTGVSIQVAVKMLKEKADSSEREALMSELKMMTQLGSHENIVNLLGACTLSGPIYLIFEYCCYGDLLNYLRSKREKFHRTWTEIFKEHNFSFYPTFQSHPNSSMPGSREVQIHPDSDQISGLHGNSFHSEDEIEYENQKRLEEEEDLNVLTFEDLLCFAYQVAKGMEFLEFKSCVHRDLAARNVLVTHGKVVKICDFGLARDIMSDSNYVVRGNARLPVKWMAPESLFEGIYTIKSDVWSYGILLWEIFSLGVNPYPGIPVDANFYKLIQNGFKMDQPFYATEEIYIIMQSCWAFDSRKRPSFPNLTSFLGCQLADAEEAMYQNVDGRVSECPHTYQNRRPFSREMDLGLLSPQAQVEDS
Experiment: FLT3 (h) kinase assay
Assay type: biochemical
Procedure: Kinase assays can be performed by measurement of incorporation of γ-^33P ATP into immobilized myelin basic protein (MBP). High binding white 384 well plates (Greiner) are coated with MBP (Sigma #M-1891) by incubation of 60 μL/well of 20 μg/mL MBP in Tris-buffered saline (TBS; 50 mM Tris pH 8.0, 138 mM NaCl, 2.7 mM KCl) for 24 h at 4° C. Plates are washed 3× with 100 μL TBS. Kinase reactions are carried out in a total volume of 34 μL in kinase buffer (according to the need to make, for example, 5 mM Hepes pH 7.6, 15 mM NaCl, 0.01% bovine gamma globulin (Sigma #1-5506), 10 mM MgCl2, 1 mM DTT, 0.02% TritonX-100). Compound dilutions are performed in DMSO and added to assay wells to a final DMSO concentration of 1%. Each data point is measured in duplicate, and at least two duplicate assays are performed for each individual compound determination. […] A mixture of unlabeled ATP and γ-^33P ATP is added to start the reaction (2×10^6 cpm of γ-^33P ATP per well (3000 Ci/mmole) and 10 μM unlabeled ATP, typically. The reactions are carried out for 1 h at room temperature with shaking. Plates are washed 7× with TBS, followed by the addition of 50 µL/well scintillation fluid (Wallac). Plates are read using a Wallac Trilux counter. This is only one format of such assays; various other formats are possible, as known to one skilled in the art. […]

IC50: 846 nM
Structure (SMILES): CC(C)CS(=O)(=O)N[C@H]1COC2C1OC[C@H]2Nc1nc(Nc2cnn(C)c2)ncc1Cl (stereo partly drawn) [Ex. 2, N-((3S,6R)-6-((5-chloro-2-((1-methyl-1H-pyrazol-4-yl)amino)pyrimidin-4-yl)amino)hexahydrofuro[3,2-b]furan-3-yl)-2-methylpropane-1-sulfonamide]
